Results as given in patent publication US5169850A, “N-(dialkylamino)methylene)-substituted pyrazolo(1,5-a)-pyrimidine-3-carboxamides and N-(dialkylamino)methylene-substituted-4,5-dihydropyrazolo-(1,5-a)-pyrimi dine-3-carboxamides” (American Cyanamid Company, priority 1991, dated 1992).
Values joined by “and” are separate entries in the source; they are usually repeats but may differ in a detail not shown here. Equal entries are not always repeated.

Assays:
[1] = Protection against clonic seizures caused by pentylenetetrazole; format: in vivo, rats; settings: orally or intraperitoneally, pentylenetetrazole 23 mg/kg i.v. at 30 or 60 min
Procedure: The anti-anxiety properties of the novel compounds of the present invention have been established in a test which indicates anxiolytic activity by the measure of protection from convulsions resulting from the administration of pentylenetetrazole. Single or graded dose levels of the test compounds were administered orally or intraperitoneally in a 2 percent starch vehicle containing 0.5 percent v/v polyethylene glycol and one drop of Polysorbate 80, or distilled water and one drop of Polysorbate 80 to groups of at least four rats. At 30 or 60 minutes, the rats were treated intravenously with pentylenetetrazole at a dose of 23 mg/kg of body weight. This dose is estimated to cause clonic seizures in 99 percent of unprotected rats. The test compounds are considered active if they protect 50 percent or more of the rats from clonic seizures.
It has been reported (R. T. Hill and D. H. Tedeschi, "Animal Testing and Screening Procedures in Evaluating Psychotropic Drugs" in "An Introduction to Psychopharmacology", pp 237-288 (Eds. R. R. Rech and K. E. Moore, Raven Press, New York, 1971)) that there is a high degree of correlation between antagonism of pentylenetetrazole seizures in rats and anti-anxiety effects in higher warm-blooded animals.

[2] = tested on: Brain-Specific Receptors of Rats (3H-benzodiazepine binding); test: Inhibition of the binding of 3H-benzodiazepine to brain-specific receptors of rats; set-up: species or system rat (male albino, Wistar strain); settings: 3H-diazepam or 3H-flunitrazepam, rat cortex P2 fraction, pH 7.4, 30 min in ice; test concentration not given
Source text: Still another test utilized for the determination of anxiolytic activity is the measurement of the ability of a test compound to inhibit the binding of tritiated benzodiazepines to brain-specific receptors of mammals. A modification of the method described by R. F. Squires, et al, Nature, 266, No. 21:732 (April, 1977) and H. Mosler, et al, Science, 198:849 (1977) was employed.
Male albino rats (Wistar strain, weighing 150-200 g each) were used. The test compounds were solubilized in N,N-dimethylformamide, acetic acid, ethanol or hydrochloric acid.
Whole cortex of rats was homogenized gently in 20 volumes of ice-cold 0.32 M sucrose, centrifuged twice at 1000 g for 10 minutes and then recentrifuged at 30,000 g for 20 minutes to produce a crude P2 -synaptosomal fraction. The P2 -fraction was either: (1) resuspended in twice the original volume in hypotonic 50 mM Tris.HCl(pH 7.4), or (2) resuspended in one-half of the original volume in hypotonic 10 mM Tris.HCL (pH 7.4) and frozen (-20° C.) until time of use. Frozen P2 preparations were thawed and resuspended in four times the original homogenizing volume at time of assay.
The binding assay consisted of 300 l of the P2 -fraction suspension (0.2-0.4 mg protein), 100 l of test drug and 100 l of 3H-diazepam 91.5 nM, final concentration) or 3H-flunitrazepam (1.0 nM, final concentration )which was added to 1.5 l of 50 mM Tris.HCl (pH 7.4). Non-specific binding controls and total binding controls received […] of diazepam ([…] final concentration) and 100 l of deionized water, respectively, in place of the test compound. Incubation for 30 minutes proceeded in ice and was terminated by filtration, under vacuum, through glass fiber filters. The filters were washed twice with 5 ml of ice-cold 50 mM Tris.HCl (pH 7.4) and placed in scintillation vials. After drying at 50°-60° C. for 30 minutes, 10 ml of diluent was added and the radioactivity determined in a scintillation counter.
Inhibition of binding was calculated by the difference between total binding and binding in the presence of test compound, divided by the total, times 100. Physiological activity can be shown by a test compound that inhibits 3H-benzodiazepine binding by 12 percent or more.

Q: Which results are given for `CN(C)C=NC(=O)c1cnn2c1NCC=C2c1cccc(C(F)(F)F)c1` [N-((Dimethylamino)methylene)-4,5-dihydro-7-(3-(trifluoromethyl)phenylpyrazolo(1,5-a)-pyrimidine-3-carboxamide]?
A: % of Rats Protected ([1]; 12.5 mg/kg): 88%; % of Rats Protected ([1]; 25 mg/kg): 75% and 88%; % Inhibition [2]: 17%
